Measured values reported in US6713638B2, “2-amino-3-aroyl-4,5 alkylthiophenes: agonist allosteric enhancers at human A1 adenosine receptors” (priority 2001, dated 2004).
“Also recorded” adds a separate entry of the source.

Key:
hA1AR = target: T1, hA1AR (Homo sapiens, UniProt P30542); test: Assay of AE (allosteric enhancer) activity: slowing of 125I-ABA dissociation from the A1AR-G protein ternary complex; assay type: binding; conditions: CHO-K1 membranes; for AE Score, %: 0.1 mM final AE, specifically bound 125I-ABA remaining after 10 minutes of dissociation, Mean ± SEM (N = 3); for AE activity (in words): hA1AR
T1 construct: expressed in transfected cells; membranes
T1 sequence (P30542 1-326): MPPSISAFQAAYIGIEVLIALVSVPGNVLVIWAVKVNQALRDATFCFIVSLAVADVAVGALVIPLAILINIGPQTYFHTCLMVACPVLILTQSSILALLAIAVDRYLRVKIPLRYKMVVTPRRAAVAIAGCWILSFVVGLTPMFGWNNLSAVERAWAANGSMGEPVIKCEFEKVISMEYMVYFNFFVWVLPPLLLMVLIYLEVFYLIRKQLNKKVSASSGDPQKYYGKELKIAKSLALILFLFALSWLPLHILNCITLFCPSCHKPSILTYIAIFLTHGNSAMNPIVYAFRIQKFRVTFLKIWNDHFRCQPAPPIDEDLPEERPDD
From the text: The allosteric enhancer (AE) activity was studied at the human A1AR (hA1AR) of a panel of compounds consisting of nine 2-amino-3-aroylthiophenes, (3a-i), eight 2-amino-3-benzoyl-4,5-dimethylthiophenes (13a-h), […] 3-aroyl-2-carboxy-4,5-dimethylthiophenes, (17a-e), ten 2-amino-3-benzoyl-5,6-ihydro-4H-cyclopenta[b]thiophenes, (19a-I), fourteen 2-amino-3-benzoyl-4,5,6,7-tetrahyd robenzo-[b]thiophenes, (20a-n), and fifteen 2-amino-3-benzoyl-5,6,7,8-tetrahydro-4H-cyclohepta[b]thiophenes, (21a-o). An in vitro assay employing the A1AR agonist ^125I-N^6-aminobenzyladenosine (^125I-ABA) and membranes from CHO-K1 cells stably expressing the hA1AR measured, as an index of AE activity, the ability of a candidate AE to slow the dissociation of the radioligand from the A1AR-G protein ternary complex.
The assay of AE activity consisted of three phases: formation of the ^125I-ABA-A1AR-G protein ternary complex; binding of the AE to the allosteric site, and dissociation of the complex by adding a combination of an A1AR antagonist (100 μM cyclopentyltheophylline) and 50 µM GTPγS. This procedure detects only AE activity since phase 3 (dissociation) is affected only by the allosteric activity of the test compound and is not affected by competitive antagonist activity. GTPγS is added to accelerate the dissociation process. […] The assay employed membranes from CHO-K1 cells stably expressing the hA1AR. For agonist binding to equilibrium, the incubation mixture consisted of 10 mM HEPES, pH 7.2, containing 0.5 mM MgCl2, 1 U/mL adenosine deaminase, 0.5 nM ^125I-ABA and 10 μg of membrane protein in a final volume of 100 μL. This phase of the assay was allowed to proceed to equilibrium (>90 minutes) at room temperature. At that point phase 2 was initiated by adding 50 μL of a 0.3 mM solution (0.1 mM final) of a candidate AE or DMSO vehicle to rapidly occupy the allosteric site. Stock solutions of AEs (10 mM) were prepared in DMSO. Five minutes later phase 3 was initiated by the addition of 50 μL of a solution containing 400 μM 8-cyclopentyltheophylline and 200 μM GTPγS. Ten minutes later, residual radioligand bound to Aireceptors was trapped on Whatman GF/C glass fiber filters using a Brandel cell harvester, washed 3 times over a 20 second interval and counted in a γ-counter. The percentage of specifically bound agonist remaining after 10 minutes of dissociation was used to calculate the “score” of AE activity:
AE activity score=100×(B−Bo)/(Beq−Bo)
Where B=residual binding (cpm) bound at the end of 10 minutes of dissociation in the presence of an AE, Bo=residual binding (cpm) at the end of 10 minutes of dissociation in the absence of an AE, and Beq=cpm bound at the end of phase 2. A compound with no AE activity has a score of 0 in this assay. An AE which completely arrests agonist dissociation will have a score of 100.

A1AR = target: T2, A1AR (Homo sapiens, UniProt P30542); test: A1AR antagonistic activity: competition with equilibrium binding of [3H]CPX; conditions: 100 μM, N = 3; for inhibition at 100 µM: read-out: Antagonist activity, % (% inhibition of specific equilibrium binding of [3H]8-cyclopentyl-1,3-dipropylxanthine)
T2 sequence (P30542 1-326): T1 sequence (P30542 1-326)
From the text: Several of the candidate AEs had substantial antagonistic activity. However, the AE and antagonist activities are unrelated (r^2=0.057, n=28).

adenosine A1 receptors = conditions: background statement, cited from earlier work

SMILES: Nc1sc2c(c1C(=O)c1ccc(-c3ccccc3)cc1)CCCC2 [Compound 20l, 2-Amino-3-(4-phenylbenzoyl)-4,5,6,7-tetrahydrobenzo[b]thiophene]
- AE Score, % (hA1AR): 33 ± 2%
- AE activity (in words) (hA1AR): excellent activity
- melting point: 110 °C

SMILES: NC1SC2=CCCC2=C1C(=O)c1cccc(Br)c1 (stereo not shown) [Compound 19d, 2-Amino-3-(3-bromobenzoyl)-4,5-dihydrocyclopenta[b]thiophene]
- AE Score, % (hA1AR): 13 ± 3%
- melting point: 202 °C
- inhibition at 100 µM (A1AR): 76%

SMILES: Nc1sccc1C(=O)c1ccccc1 [Compound 3a, 2-Amino-3-benzoylthiophene]
- AE Score, % (hA1AR): 0.2 ± 0.01%
- melting point: 147 °C
- inhibition at 100 µM (A1AR): 24%

SMILES: Cc1sc(N)c(C(=O)c2cccc(C(F)(F)F)c2)c1C [PD 81,723]
- enhancement at A1 receptors (adenosine A1 receptors): enhancement at A1 receptors of all species tested to date
- selectivity for adenosine A1 receptors (adenosine A1 receptors; other adenosine receptor subtypes, other classes of receptors): no effects on other adenosine receptor subtypes or on other classes of receptors

SMILES: CCOC(=O)c1c(N)sc2c1CCC2 [Compound 19a]
- AE Score, % (hA1AR): 0.4 ± 0.1%
- AE activity (in words) (hA1AR): did not support AE activity; also recorded: None of the cycloalkylthiophenes having a 3-carboxyethyl substituent, namely, 19a, 20a and 21a, was active
- Antagonist activity, % (% inhibition of specific equilibrium binding of [3H]8-cyclopentyl-1,3-dipropylxanthine) (A1AR): 72%

SMILES: Nc1sc2c(c1C(=O)c1ccccc1)CCC2 [Compound 19b]
- AE Score, % (hA1AR): 20 ± 3.6%
- Antagonist activity, % (% inhibition of specific equilibrium binding of [3H]8-cyclopentyl-1,3-dipropylxanthine) (A1AR): 63%
